Test results reported in ChEMBL document CHEMBL1153771, “Gamma-lactone carbazoles from Clausena anisata” (2009).
Calls of active or inactive are those of the source. No cut-off for these calls is given here.

What follows are compounds tested on HL-60 (assay: Cytotoxicity against human HL60 cells assessed as cell viability at 30 uM after 24 hrs by MTS assay). Settings: not given.
Assay type: functional
With `COc1cc2[nH]c3ccccc3c2cc1C=O` the Activity was “inactive”. `COC(=O)c1cc(OC)c2[nH]c3ccccc3c2c1CC=C(C)C` was tested, and the Activity was “inactive”. `COC(=O)c1cc2c(cc1O)[nH]c1ccccc12` was tested, and the Activity was “inactive”. For `O=Cc1cc2c(cc1O)[nH]c1ccccc12`, the Activity was “inactive”. For `COC(=O)c1cc(O)c2[nH]c3ccccc3c2c1CC=C(C)C`, the Activity was “inactive”.

Same assay, conditions: HL-60, 24 h, read-out: Activity
Compound `C=C(C)C1Cc2c(cc(OC)c3[nH]c4ccccc4c23)C(=O)O1` (stereo not drawn) [CLAUSAMINE B] has a viability at 30 µM of 80.3%. `COc1cc2c(c3c1[nH]c1ccccc13)CC(C(C)(C)O)OC2=O` (stereo not drawn) [CLAUSAMINE C] was tested, and the viability at 30 µM was 79.7%. Compound `COC(=O)c1cc(OC)c2[nH]c3ccccc3c2c1/C=C/C(C)(C)O` [CLAUSAMINE E] has a viability at 30 µM of 47.3%.
